Experimental data from PMC7529758, “Over-activation of a nonessential bacterial protease DegP as an antibiotic strategy” (Communications Biology, 2020).
Values after ≈ are worked out from the molar mass of the structure shown. *1 amine or outer side, *2 acyl side, *3 side chain or, on linkers, in order; H or OH if unused. Where a SMILES comes first, the peptide text is derived from it. Bridges are numbered along the chain shown (N, C = ends). Roman numbers before positions name the chains, in order. TBMB = c1c(C[*:1])cc(C[*:3])cc1C[*:2]

Key:
DegP^WT = assay: DegP activation assay with the reporter peptide; assay type: biochemical, Escherichia coli; settings: reporter 100 μM
Method: DegP activation experiments were performed as previously described[14],[22]. All the in vitro assays were performed in a buffer containing 50 mM sodium phosphate (pH 8) and 100 mM NaCl. Two-fold serial dilutions of the activator were incubated with DegP^WT (1, 3, or 10 μM) for 5 min. After incubation, the reporter peptide (Abz-[…]^NO2D; Abz, 2-aminobenzoic acid; Y^NO2, 3-nitrotyrosine; 100 μM final) was added. DegP activation was monitored by increased fluorescence by using a micro-plate reader (excitation 320 nm, emission 430 nm; Infinite F200pro, Tecan). Assays were performed in triplicates.

DegP^S210A [1] = target: T1, DegP^S210A (Escherichia coli, UniProt P0C0V0, C83S/C95S/N322C/S236A); assay: FRET assay of DegP cage assembly; assay type: biochemical; settings: FRET of donor- and acceptor-labeled DegP variants
T1 construct: pET22b-degP(full length; C57S/C69S/N296C/S210A)_6His; 6His (C); made in house; host or cells: E. coli (inferred from the pET plasmid)
T1 sequence (P0C0V0 27-474 C83S/C95S/S236A/N322C): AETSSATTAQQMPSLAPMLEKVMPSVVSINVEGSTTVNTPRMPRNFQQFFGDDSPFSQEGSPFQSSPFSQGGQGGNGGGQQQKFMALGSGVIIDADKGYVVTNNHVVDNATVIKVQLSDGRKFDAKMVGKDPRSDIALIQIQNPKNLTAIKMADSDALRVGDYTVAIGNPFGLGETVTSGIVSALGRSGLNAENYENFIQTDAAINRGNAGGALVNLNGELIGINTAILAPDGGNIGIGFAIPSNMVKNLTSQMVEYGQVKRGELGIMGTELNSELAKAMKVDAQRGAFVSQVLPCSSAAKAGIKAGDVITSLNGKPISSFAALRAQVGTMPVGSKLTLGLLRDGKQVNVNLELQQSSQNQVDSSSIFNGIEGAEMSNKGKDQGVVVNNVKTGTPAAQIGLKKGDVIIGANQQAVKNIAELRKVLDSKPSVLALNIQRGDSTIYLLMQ
Method: Fluorescence resonance energy transfer (FRET) assay was performed as previously described[14],[22]. Equimolar amounts of fluorescence donor- and acceptor-labeled DegP^S210A (total 0.1, 1 or 3 μM) was mixed in a buffer containing 50 mM sodium phosphate (pH 8) and 100 mM NaCl. Two-fold serial dilutions of activators were added to the DegP mixtures. Alexa Fluor 555 C2-maleinide and 647 C2-maleinide (life technologies) were used as fluorescence dyes. Cage assembly of DegP was monitored by increased FRET ratio using the micro-plate reader (excitation 520 nm, emission 570 or 670 nm, Infinite M200pro, Tecan). Assays were performed in triplicates.

DegP^S210A [2] = target: T2, DegP^S210A (Escherichia coli, UniProt P0C0V0, S236A); assay: Fluorescence anisotropy binding assay
T2 construct: pET22b-degP(full length; S210A)_6His; 6His (C); made in house
T2 sequence (P0C0V0 27-474 S236A): as the sequence (P0C0V0 27-474 C83S/C95S/S236A/N322C) above, with S57C, S69C, C296N counted along it
Method: Fluorescence anisotropy assay was performed as previously described[14],[22]. Two-fold serial dilutions of activators were mixed with a fluorescence-labeled peptide (^flC18–58 or ^fl45–58, 50 nM; Oregon Green 488 maleimide, Invitrogen) and DegP^S210A (10 μM for ^flC18–58; 80 μM for ^fl45–58). Anisotropy was monitored by using a micro-plate reader (excitation 485 nm, emission 535 nm, Infinite F200pro, Tecan). The assay was performed in triplicates.

E. coli imp4213 = assay: microbe, parasite or virus in culture; assay type: cell-based, Escherichia coli; settings: imp4213, 12 h, LB
Method: (§1) The susceptibility of E. coli to activators was analyzed by determining the MICs. Two-fold serial dilutions of activators in LB broth were added to bacteria (OD600 = 0.1) in 96-well plates. Plates were incubated with shaking at 30 or 42 °C. After 12 h of incubation, the MIC was defined as the lowest concentration of the activator to inhibit the growth of bacteria by using a micro-plate reader (Absorbance 600 nm, Infinite M200pro, Tecan). The assay was performed in triplicates.

[3] = test system: wild-type Escherichia coli (W3110); assay: Growth (OD600) of wild-type cells; assay type: cell-based; settings: LB; OD600 after 12 h; 42 °C
Method: as §1

E.coli imp4213 strain = assay type: cell-based, Escherichia coli; settings: log-phase cells; 2x MIC; both 30 °C and 42 °C; CFU
Method: Time-kill experiment was performed by counting the viable bacteria at each time point. The E.coli imp4213 strain was cultured with streptomycin overnight and diluted 1:100 in fresh LB broth. When the OD600 value became 0.01, the activator was added at 2x MIC. The sample was incubated with shaking (180 rpm) at 30 °C or 42 °C, and aliquots were taken after 0, 1, 2, 4, 6, 8, 10, or 12 h. These aliquots were serially diluted (ten-fold) and plated on LB agar plates for colony counts. Experiments were performed in triplicates. The kill curves were plotted with the CFU/mL against time.
Experiments with cells in the stationary phase, however, were performed without dilution of the overnight culture.

## CC(C)C[C@H](NC(=O)[C@H](CCCCN)NC(=O)[C@H](CCCNC(=N)N)NC(=O)[C@H](Cc1ccc(O)cc1)NC(=O)[C@@H](N)CSCc1cc(CSC[C@H](N)C(=O)N[C@@H](Cc2ccc(O)cc2)C(=O)N[C@@H](CCCNC(=N)N)C(=O)N[C@@H](CCCCN)C(=O)N[C@@H](CC(C)C)C(=O)O)cc(CSC[C@H](N)C(=O)N[C@@H](Cc2ccc(O)cc2)C(=O)N[C@@H](CCCNC(=N)N)C(=O)N[C@@H](CCCCN)C(=O)N[C@@H](CC(C)C)C(=O)O)c1)C(=O)O [TMB_CYRKL] (I: H-CYRKL-OH / II: H-CYRKL-OH / III: H-CYRKL-OH; linker I:1-II:1-III:1 via TBMB)
DegP^WT
  increase of the cleavage rate compared with Lpp^+Leu and TMB_CKYRKL: at least ten times more
DegP^WT; DegP 1 or 10 μM, increasing concentrations
  activation of DegP (cleavage rate of the reporter peptide): activation was observed
DegP^S210A [1]
  assembly of DegP cages: assemble DegP cages
DegP^S210A [2]; DegPS210A 10 μM
  concentrations that enhance binding of fl18-58: 5~ 40 µM
  concentrations that interrupt the interaction of fl18-58: > 40 µM
DegP^S210A [2]; DegPS210A 80 μM
  concentrations that enhance binding of fl45-58: 10~ 80 µM
  concentrations that interrupt the interaction of fl45-58: > 80 µM
E. coli imp4213; 30 °C
  MIC: 320 µM (≈ 691 µg/mL)
E. coli imp4213; Fig. 3a and Supplementary Fig. 6b (30 °C and 42 °C)
  MIC: 320 to 640 µM
[3]
  growth of wild-type E. coli W3110: did not inhibit growth
E.coli imp4213 strain
  reduction of the number of viable cells: two orders of magnitude
